What was measured:
[1] = cited from earlier work
skin of older probands = assay: Regular topical application of ascorbic acid to the skin of older probands (confocal microscopy in vivo)
Source text: Status and changes of the microcapillary system and the rete peg pattern can be shown, followed, and quantified on probands quickly (in minutes) by means of modern techniques, such as confocal microscopy in vivo—i.e., free of injury, repeatedly as often as desired, and with dynamic responses to actual influences—both with respect to the density of the rete pegs or microcapillaries (number per surface unit) and with respect to their height, which makes it possible to estimate the size of the exchange surface.

SMILES: O=C1O[C@H]([C@@H](O)CO)C(O)=C1O [ascorbic acid]
- stability to heat ([1]; heat): sensitive to heat
- stability in a pure, dry state ([1]; pure, dry state, light, air, heat): relatively resistant to light, air, and heat
- stability in the presence of traces of heavy metal and in an alkaline environment ([1]; traces of heavy metal, alkaline environment, air and atmospheric oxygen): decomposes
- density of rete pegs and microcapillaries (skin of older probands): reversibly increased to the extent of youthful skin
- elasticity parameters of the skin (formation of suction blisters) (skin of older probands): improvement
- moisture content and roughness of the horny layer (skin of older probands): improvement
